Experimental data: patent US10695311B2, “Solution for ophthalmology” (priority 2016, dated 2020)

Legend:
lens capsule = assay: Surgical studies within the scope of extracapsular procedures; format: in vivo; settings: L-lysine concentrations of up to 5%
From the text: (§1) The surgical result is therefore permanent; further procedures for treatment of possible capsule fibrosis are rarely or never necessary. The solution according to the invention can be used with every phacoemulsification, with or without lens implantation, to clean the posterior capsule. In this regard, the solution according to the invention can be produced from commercially available L-lysine. In particular, the solution can be present as a flushing solution.
When performing the extracapsular operation, it has proven to be practical to apply 1 to 5 ml of the L-lysine according to the invention to the posterior capsule after removal of the cloudy lens core and the subcapsular cortex layer (Cortex lentis), using an anterior-chamber cannula. After a sufficient period of action, the solution is suctioned away and rinsed off. In this regard, the period of action is primarily dependent on the concentration of the solution. For a solution with a concentration of 2 wt.-%, it lies between 30 s and 5 min, preferably at approximately 1 min. The period of action should not amount to more than 5 min, preferably not more than 3 min.

[1] = test system: lens capsule and hemidesmosomes; assay: Studies by the inventor with lysine solutions (lens capsule / hemidesmosomes); settings: lysine solutions having a lower concentration
[2] = test system: zonula fibers and posterior capsule of donor eyes; assay: Experiments on donor eyes; settings: the corneas of which were used for cornea transfers, L-lysine in the concentration indicated above (0.5-3.5 wt.-%)
From the text: as §1

`NCCCC[C@H](N)C(=O)O` [L-lysine] was tested, and the “integrity of lens capsule during and after the procedure” value (lens capsule) was “the lens capsule remained intact during and after the procedure”, the “prevention of capsule fibrosis after the procedures” value (lens capsule) was “it was possible to prevent capsule fibrosis after the procedures” and the “damage to the lens capsule” value [1] was “damage to the lens capsule does not occur”. For the same compound, the “digestion of the hemidesmosomes” value [1] was “digestion of the hemidesmosomes still takes place to a sufficient extent” and the “attack on zonula fibers and posterior capsule” value [2] was “neither the zonula fibers nor the posterior capsule are attacked”.
